Test results from publication PMC10500568, “Inhibition of MurA Enzyme from Escherichia coli by Flavonoids and Their Synthetic Analogues” (ACS Omega, 2023).
Where two headings read alike, the source gives them in different places.

Key:
MurA enzyme from E. coli [1] = molecular target: T1, MurA enzyme from E. coli (Escherichia coli, UniProt P0A749); assay: MurA inhibition assay (malachite green, orthophosphate release); format: biochemical; conditions: for effect of DTT on inhibition (comparison of RAs): in the presence of DTT; for inhibitory activity on MurA in at least one of the three assays: residual activity at 100 μM, threshold 50% RA, no preincubation, 30 min preincubation, or 30 min + DTT; for time-dependent inhibition: inactive without preincubation, activity after 30 min of preincubation: 0 min vs 30 min preincubation
Procedure: To determine the inhibition of MurA, the colorimetric assay with malachite green was used to measure the release of orthophosphate generated during the reaction.[30] […] Time-dependent inhibition assays were also performed by preincubating MurA with the 200 μM UNAG substrate and target compounds for 30 min at 37 °C before starting the reaction with the addition of the second substrate 100 μM PEP, resulting in a final mixture volume of 50 μL. The reaction was stopped after a 15 min incubation at 37 °C by adding the Biomol reagent (100 μL, Enzo Life Sciences, New York), and the absorbance was measured after 5 min at 650 nm using a microplate reader (BioTek, Synergy H4). The final concentration of DMSO in the reaction mixture was 5% (v/v), and 1 μM fosfomycin was used as a reference in the MurA assay. The percentage of residual activity was calculated in comparison to the negative controls, which contained only 5% DMSO. IC50 values were determined by measuring residual activities at 7 different concentrations of the compounds and calculated using GraphPad Prism (GraphPad Software, San Diego, California).
The initial screening of flavonoids was performed under three different assay conditions: (1) without preincubation, (2) with a 30 min preincubation, and (3) with the addition of dithiothreitol (DTT) along with a 30 min preincubation. These different conditions were necessary to understand the mechanism of inhibition of each flavonoid. […] To distinguish whether the adduct formed between the inhibitor and the enzyme was covalent or noncovalent, the inhibitory activity was tested in the presence of 0.1 mM DTT.

MurA enzyme from E. coli [2] = molecular target: T1, MurA enzyme from E. coli; assay: MurA dilution assay; format: biochemical; conditions: for RA% (residual activity), dilution assay: compound at 10 times IC50, 30 min preincubation, then 100-fold dilution
Procedure: The enzyme concentration used was the usual concentration in reactivity assays 100-fold (25 μM). After 30 min of preincubation, the mixture was diluted 100-fold, then the previously described reactivity assay was performed using 100 μM PEP.

E. coli (ATCC 25922) = assay: Antibacterial assay, broth microdilution MIC; format: cell-based, Escherichia coli
Procedure: (§1) To test antimicrobial properties, a broth microdilution method in 96-well plates was used according to Clinical and Laboratory Standards Institute guidelines[31] and European Committee on Antimicrobial Susceptibility Testing ([…]) recommendations.[32] Bacterial suspensions, equivalent to a 0.5 McFarland turbidity standard, were diluted with cation-adjusted Mueller–Hinton broth with TES buffering (ThermoFisher Scientific) to achieve a final inoculum of 10^5 CFU/mL. Compounds dissolved in 100% DMSO at a concentration of 10 mM were mixed with the inoculum and incubated at 35 °C for 20 h.

S. aureus (ATCC 29213) = assay: Antibacterial assay, broth microdilution MIC; format: cell-based, Staphylococcus aureus; conditions: for inhibition of S. aureus growth: broth microdilution
Procedure: as §1

S. aureus = test system: S. aureus; design: method as in PMID 18313801; conditions: cited from earlier work
[3] = 100 μM, 30 min preincubation with addition of DTT (0.1 mM), read-out: RA% (residual activity), 30 min + DTT
[4] = 30 min preincubation, read-out: IC50, 30 min
[5] = without preincubation, read-out: IC50, 0 min
[6] = Escherichia coli, ATCC25922, E. coli ATCC 25922, 35 °C, 20 h, read-out: MIC E. coli
[7] = Staphylococcus aureus, ATCC29213, S. aureus ATCC 29213, 35 °C, 20 h, read-out: MIC S. aureus
[8] = 100 μM, without preincubation, read-out: RA% (residual activity), 0 min

T1 sequence (P0A749 whole entry): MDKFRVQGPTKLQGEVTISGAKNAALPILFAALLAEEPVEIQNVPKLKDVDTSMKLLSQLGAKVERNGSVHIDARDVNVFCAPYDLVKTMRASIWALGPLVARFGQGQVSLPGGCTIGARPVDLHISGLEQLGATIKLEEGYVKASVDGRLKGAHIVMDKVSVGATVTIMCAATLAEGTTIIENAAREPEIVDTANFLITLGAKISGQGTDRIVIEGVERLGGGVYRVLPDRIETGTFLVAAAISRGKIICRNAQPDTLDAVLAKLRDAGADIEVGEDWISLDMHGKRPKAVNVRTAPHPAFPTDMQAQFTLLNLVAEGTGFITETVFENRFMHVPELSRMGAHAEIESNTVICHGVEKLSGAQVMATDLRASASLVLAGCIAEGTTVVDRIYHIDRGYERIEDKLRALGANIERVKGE

Row | Compound | remaining activity at 100 µM (MurA enzyme from E. coli [1]; [3]) [%] | Hill coefficient, 30 min (MurA enzyme from E. coli [1]; 30 min preincubation) | effect of DTT on inhibition (comparison of RAs) (MurA enzyme from E. coli [1]; 30 min preincubation) | IC50 (MurA enzyme from E. coli [1]; [4]) [µM] | inhibitory activity on MurA in at least one of the three assays (MurA enzyme from E. coli [1]) | Hill coefficient, 0 min (MurA enzyme from E. coli [1]; without preincubation) | IC50 (MurA enzyme from E. coli [1]; [5]) [µM] | RA% (residual activity), dilution assay (MurA enzyme from E. coli [2]) [%] | MIC (E. coli (ATCC 25922); [6]) [µM] | MIC (S. aureus (ATCC 29213); [7]) [µM] | time-dependent inhibition: inactive without preincubation, activity after 30 min of preincubation (MurA enzyme from E. coli [1]; 100 μM) | remaining activity at 100 µM (MurA enzyme from E. coli [1]; [8]) [%] | also measured
1 | O=c1c(O)c(-c2ccc(O)c(O)c2)oc2cc(O)ccc12 [Compound 2, fisetin] | 60 | 1.0 | reduced inhibition in the presence of DTT | 8.8 | showed inhibitory activity | 1.4 | 91 | 98 | > 250 | > 250 | – | – | –
2 | O=c1c(O)c(-c2cc(O)c(O)c(O)c2)oc2cc(O)cc(O)c12 [Compound 4, myricetin] | 34 | 1.9 | reduced inhibition in the presence of DTT | – | showed inhibitory activity | 0.8 | – | 84 | > 250 | > 250 | active after 30 min of preincubation | – | –
3 | COc1cc(O)c2c(=O)c(O)c(-c3ccc(O)c(O)c3)oc2c1 [Compound 8, rhamnetin] | 58 | 1.1 | reduced inhibition in the presence of DTT | 13 | showed inhibitory activity | 1.1 | 96 | 77 | > 250 | > 250 | – | – | –
4 | O=c1c(O)c(-c2ccc(O)c(O)c2)oc2cc(O)cc(O)c12 [Compound 9, quercetin] | 46 | 1.3 | reduced inhibition in the presence of DTT | 9.3 | showed inhibitory activity | 0.8 | 14 | 93 | > 250 | > 250 | – | – | –
5 | C[C@@H]1O[C@@H](Oc2c(-c3ccc(O)c(O)c3)oc3cc(O)cc(O)c3c2=O)[C@H](O)[C@H](O)[C@H]1O [Compound 10, quercitrin] | 103 | 1.1 | – | 33 | showed inhibitory activity | – | – | 88 | – | – | active after 30 min of preincubation | 66 | MIC (E. coli (ATCC 25922); Escherichia coli, ATCC25922, 20 h, read-out: MIC E. coli): > 250 µM; MIC (S. aureus (ATCC 29213); Staphylococcus aureus, ATCC29213, 20 h, read-out: MIC S. aureus): > 250 µM
6 | O=c1cc(-c2ccc(O)c(O)c2)oc2cc(O)cc(O)c12 [Compound 17, luteolin] | 96 | 1.3 | – | 41.5 | showed inhibitory activity | – | – | 91 | > 250 | 125 | – | 68 | inhibition of S. aureus growth (S. aureus (ATCC 29213)): weak inhibition; antibacterial activity against S. aureus, previous report (S. aureus): 50 µg/mL
7 | O=c1cc(-c2ccccc2)oc2c(O)c(O)ccc12 [Compound 25, 7,8-dihydroxyflavone] | 89 | 1.4 | – | 12.9 | showed inhibitory activity | 2 | 88 | 100 | > 250 | 125 | – | – | inhibition of S. aureus growth (S. aureus (ATCC 29213)): weak inhibition
8 | O=c1cc(-c2ccccc2)oc2cc(O)c(O)c(O)c12 [Compound 26, baicalein] | 86 | 1.4 | – | 61 | showed inhibitory activity | – | – | 50 | > 250 | 31 | active after 30 min of preincubation | 66 | inhibitory activity after dilution (MurA enzyme from E. coli [2]; dilution assay): retained some inhibitory activity; effect on E. coli growth (E. coli (ATCC 25922); broth microdilution): had no effect; inhibition of S. aureus growth (S. aureus (ATCC 29213)): weak inhibition
9 | Oc1cc(O)c2c(c1)O[C@H](c1ccc(O)c(O)c1)[C@@H](O)[C@H]2O [Compound 35, leucocyanidin] | 13 | 2.9 | reduced inhibition in the presence of DTT | 28.6 | showed inhibitory activity | 2.6 | 69 | – | > 250 | > 250 | – | – | Hill coefficient (dose-response curves at 0 and 30 min) (MurA enzyme from E. coli [1]): > 2.5
10 | O=C1C[C@@H](c2ccccc2)Oc2ccccc21 [Compound 46, flavanone] | – | – | – | – | showed inhibitory activity | – | – | – | – | – | – | – | –
11 | O=C1c2c(O)cc(O)cc2OC(c2ccc(O)c(O)c2)C1O (centres unmarked) [Compound 47, taxifolin] | 105 | 0.5 | – | 4.5 | showed inhibitory activity | – | – | 93 | > 250 | > 250 | active after 30 min of preincubation | 98 | –
12 | COc1cc(O)cc2c1C(=O)C[C@@H](c1ccccc1)O2 [Compound 48, (−)-alpinetin] | 102 | 1.6 | – | 57 | – | – | – | 93 | > 250 | > 250 | active after 30 min of preincubation | 66 | –
13 | O=C1c2c(O)cc(O)cc2O[C@H](c2cc(O)c(O)c(O)c2)[C@H]1O [Compound 49, ampelopsin] | 101 | 0.8 | – | 0.48 | showed inhibitory activity | 0.8 | 36 | 100 | > 250 | 125 | – | – | Hill coefficient (dose-response curves at 0 and 30 min) (MurA enzyme from E. coli [1]): ~1; inhibition of S. aureus growth (S. aureus (ATCC 29213)): weak inhibition
14 | CN(C)[C@@H]1C(O)=C(C(N)=O)C(=O)[C@@]2(O)C(O)=C3C(=O)c4c(O)cccc4[C@@](C)(O)[C@H]3C[C@@H]12 [tetracycline, reference compound] | – | – | – | – | – | – | – | – | – | – | – | – | MIC (E. coli (ATCC 25922); Escherichia coli, ATCC25922, E. coli ATCC 25922, read-out: MIC E. coli (positive control)): 1 µg/mL; MIC (S. aureus (ATCC 29213); Staphylococcus aureus, ATCC29213, S. aureus ATCC 29213, read-out: MIC S. aureus (positive control)): 0.5 µg/mL
15 | myricitrin [Compound 5] | – | 0.6 | – | – | showed inhibitory activity | – | – | 97 | – | – | – | – | RA% (residual activity), 30 min + DTT (MurA enzyme from E. coli [1]; 100 μM, 30 min preincubation with addition of DTT (0.1 mM)): 106%; RA% (residual activity), 0 min (MurA enzyme from E. coli [1]; 100 μM, without preincubation): 76%; MIC (E. coli (ATCC 25922); E. coli ATCC 25922, 35 °C, 20 h, read-out: MIC E. coli): >250 µM; MIC (S. aureus (ATCC 29213); S. aureus ATCC 29213, 35 °C, 20 h, read-out: MIC S. aureus): >250 µM
